Measured values taken from ChEMBL document CHEMBL3639310, “Substituted dihydropyrazolones and their use” (2013).

Target: Egl nine homolog 1 (Homo sapiens, UniProt Q9GZT9)
Assay: In Vitro Inhibition Assay: In vitro tests for determination of the activity and selectivity of HIF prolyl 4-hydroxylase inhibitors. Hydroxylated HIF bonds specifically to the von Hippel-Lindau protein-elongin B-elongin C complex (VBC complex). This interaction occurs only if HIF is hydroxylated on a conserved prolyl radical. It is the basis for the biochemical determination of HIF prolyl hydroxylase activity. The test is carried out as described [Oehme F., Jonghaus W., Narouz-Ott L., Huetter J., Flamme I., Anal. Biochem. 330 (1), 74-80 (2004)].

Egl nine homolog 1, sequence (Q9GZT9 whole entry, looked up): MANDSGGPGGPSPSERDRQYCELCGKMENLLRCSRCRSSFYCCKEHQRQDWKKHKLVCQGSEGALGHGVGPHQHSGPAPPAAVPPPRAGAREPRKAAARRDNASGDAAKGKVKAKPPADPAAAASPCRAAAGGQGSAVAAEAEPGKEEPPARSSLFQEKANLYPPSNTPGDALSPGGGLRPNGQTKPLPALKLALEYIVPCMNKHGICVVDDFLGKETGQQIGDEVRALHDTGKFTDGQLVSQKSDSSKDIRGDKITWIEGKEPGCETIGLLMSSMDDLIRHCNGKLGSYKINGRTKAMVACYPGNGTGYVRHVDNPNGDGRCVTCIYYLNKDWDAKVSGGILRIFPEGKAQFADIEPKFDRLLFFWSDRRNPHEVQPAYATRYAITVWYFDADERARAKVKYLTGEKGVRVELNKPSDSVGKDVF

In the case of N#Cc1cn(-c2c[nH]n(-c3cc(N4CC(F)(F)C4)ncn3)c2=O)cn1, the IC50 is reported as 90 nM.
